Test results taken from patent publication US9611278B2 (Merck Sharp & Dohme Corp., priority 2013, dated 2017).

Key:
[1] = test system: Spontaneously hypertensive rats (SHR); experiment: Acute Efficacy in Spontaneously Hypertensive Rats (SHR); type: in vivo, rat; settings: single oral dose
Excerpt: Spontaneously hypertensive rats (SHR, male, Charles River) were implanted with DSI TA11PA-C40 telemetry device (Data Sciences, Inc., St. Paul, Minn.) under isoflurane or ketamine/metomidine anesthesia. The telemetry unit catheter was inserted into the descending aorta via the femoral artery and the telemetry device was implanted subcutaneously in the left flank area. Animals were allowed to recover from surgery for 14 days before the start of any studies. Blood pressure, heart rate, and activity signals from conscious, freely moving rats were recorded continuously for 30 seconds every 10 min. On the day prior to administration of compound, a single oral dose of vehicle (10% transcutol/20% Cremophor/70% water) was administered to all animals to establish baseline control data. The blood pressure lowering efficacy of compound (PO) or vehicle was evaluated following a single oral gavage. Data were collected as hourly averages, and changes in blood pressure were calculated by subtracting control baseline data on an hourly basis. Animals were maintained on normal diet with a 12 hour light-dark cycle.
Maximum peak decreases of systolic blood pressure (SBP) in SHR at a particular P.O. dose (mpk milligrams per kilogram) for the following representative compounds are provided in Table 9. Category A=SBP in SHRs <15 mmHg; Category B=SBP in SHRs 15-25 mmHg; Category C=SBP in SHRs >25 mmHg

[2] = biological target: T1, sGC α1/β1 heterodimer stably expressed in CHO-K1 cells (CHO-K1/sGC) (Homo sapiens, UniProt Q02108+Q02153); experiment: Cell-based sGC Functional Assay (CASA Assay); settings: for Emax: CHO-K1, activation as percentage of maximum cGMP production of Compound A (set to 100%), read-out: % Act.; for EC50: inflection point of cGMP generation in CHO-K1/sGC cells, 4P fit, 1 hr at 37° C., read-out: IP
T1 construct: expressed in transfected cells
T1 sequence (Q02108 1-690): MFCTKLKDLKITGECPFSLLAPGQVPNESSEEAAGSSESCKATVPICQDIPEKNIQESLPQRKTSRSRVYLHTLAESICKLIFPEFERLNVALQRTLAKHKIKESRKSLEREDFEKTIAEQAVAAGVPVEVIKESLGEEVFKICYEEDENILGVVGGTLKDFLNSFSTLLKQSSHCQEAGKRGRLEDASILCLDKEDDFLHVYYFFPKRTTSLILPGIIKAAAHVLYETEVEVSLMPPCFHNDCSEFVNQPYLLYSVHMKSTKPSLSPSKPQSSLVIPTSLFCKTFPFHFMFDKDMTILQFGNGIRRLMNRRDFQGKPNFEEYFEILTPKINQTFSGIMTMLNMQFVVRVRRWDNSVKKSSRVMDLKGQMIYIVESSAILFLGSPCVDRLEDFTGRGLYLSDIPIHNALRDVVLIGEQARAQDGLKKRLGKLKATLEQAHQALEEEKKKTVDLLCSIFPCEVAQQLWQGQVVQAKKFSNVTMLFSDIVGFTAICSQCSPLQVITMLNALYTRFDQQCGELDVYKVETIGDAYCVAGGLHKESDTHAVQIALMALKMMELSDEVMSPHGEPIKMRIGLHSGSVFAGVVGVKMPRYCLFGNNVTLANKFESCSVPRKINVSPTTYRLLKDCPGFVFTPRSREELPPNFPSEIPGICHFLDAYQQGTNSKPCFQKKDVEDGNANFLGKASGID
T1 sequence (Q02153 1-619): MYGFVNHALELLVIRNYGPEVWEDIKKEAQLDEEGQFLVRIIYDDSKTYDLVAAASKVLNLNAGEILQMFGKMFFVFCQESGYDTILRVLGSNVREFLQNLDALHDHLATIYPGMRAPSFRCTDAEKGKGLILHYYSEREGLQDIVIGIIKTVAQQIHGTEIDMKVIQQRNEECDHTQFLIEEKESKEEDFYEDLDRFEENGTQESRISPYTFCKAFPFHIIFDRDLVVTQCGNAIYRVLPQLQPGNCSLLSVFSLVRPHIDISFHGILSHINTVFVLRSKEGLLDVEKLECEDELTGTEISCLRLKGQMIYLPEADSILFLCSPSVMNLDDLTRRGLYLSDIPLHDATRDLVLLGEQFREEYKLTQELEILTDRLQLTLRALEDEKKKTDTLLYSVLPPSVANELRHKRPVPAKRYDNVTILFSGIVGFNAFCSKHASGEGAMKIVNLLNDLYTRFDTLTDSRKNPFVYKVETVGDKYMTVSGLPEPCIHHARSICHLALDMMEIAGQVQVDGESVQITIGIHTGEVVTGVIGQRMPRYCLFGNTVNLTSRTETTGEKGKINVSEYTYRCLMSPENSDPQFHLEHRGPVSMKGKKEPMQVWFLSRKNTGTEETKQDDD
Outline: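 CHO-K1 cells stably expressing human sGC α1/β1 were incubated with compound for 1 h at 37 °C in buffer with 0.5 mM IBMX and 2.5% DMSO, with or without 1 μM DETA-NO. Intracellular cGMP was read by HTRF and expressed as percentage of maximal activation by reference activator Compound A. Values came from a 4-parameter fit.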

Structure (SMILES)	Category: maximum peak decrease of systolic blood pressure (SBP) in SHR ([1]; P.O. 1 mpk)	Emax [2]	EC50 [2]	Category: maximum peak decrease of systolic blood pressure (SBP) in SHR ([1]; P.O. 0.3 mpk)	% Act. ([2]; activation as percentage of maximum cGMP production of Compound A (set to 100%))
Cn1ncc2c(-c3nc(N)c4c(n3)NC(=O)C4(c3nnc(C4CC4)o3)C3CC3)nc(CCC(F)(F)C(F)(F)F)nc21 (stereo not drawn) [Example 44, 4-Amino-5-cyclopropyl-5-(5-cyclopropyl-1,3,4-oxadiazol-2-yl)-2-(1-methyl-6-(3,3,4,4,4-pentafluorobutyl)-1H-pyrazolo[3,4-d]pyrimidin-4-yl)-5,7-dihydro-6H-pyrrolo[2,3-d]pyrimidin-6-one]	B (Category B=SBP in SHRs 15-25 mmHg)	113%	225 nM	–	–
[2H]C([2H])([2H])n1ncc2c(-c3nc(N)c4c(n3)NC(=O)C4(C)c3cn(CC4CC4)nn3)nc(CCC(F)(F)C(F)(F)F)nc21 (stereo not drawn) [Example 63, 4-Amino-5-(1-(cyclopropylmethyl)-1H-1,2,3-triazol-4-yl)-5-methyl-2-(1-(methyl-d3)-6-(3,3,4,4,4-pentafluorobutyl)-1H-pyrazolo[3,4-d]pyrimidin-4-yl)-5,7-dihydro-6H-pyrrolo[2,3-d]pyrimidin-6-one]	A (Category A=SBP in SHRs <15 mmHg)	93%	235 nM	–	–
[2H]C([2H])([2H])n1ncc2c(-c3nc(N)c4c(n3)NC(=O)C4(C)c3cn(C(C)C)nn3)nc(CCC(F)(F)C(F)(F)F)nc21 (stereo not drawn) [Example 67, 4-Amino-5-(1-isopropyl-1H-1,2,3-triazol-4-yl)-5-methyl-2-(1-(methyl-d3)-6-(3,3,4,4,4-pentafluorobutyl)-1H-pyrazolo[3,4-d]pyrimidin-4-yl)-5,7-dihydro-6H-pyrrolo[2,3-d]pyrimidin-6-one]	–	–	120 nM	B (Category B=SBP in SHRs 15-25 mmHg)	128%
CC(C)n1cc(C2(C)C(=O)Nc3nc(-c4nc(CCCC(F)(F)F)nc5c4cnn5C)nc(N)c32)nn1 (stereo not drawn) [Example 78, 4-Amino-5-(1-isopropyl-1H-1,2,3-triazol-4-yl)-5-methyl-2-(1-methyl-6-(4,4,4-trifluorobutyl)-1H-pyrazolo[3,4-d]pyrimidin-4-yl)-5,7-dihydro-6H-pyrrolo[2,3-d]pyrimidin-6-one]	C (Category C=SBP in SHRs >25 mmHg)	103%	368 nM	–	–
Cn1ccc2c(-c3nc(N)c4c(n3)NC(=O)C4(C)c3nnc(C4CC4)o3)nc(CCC(F)(F)C(F)(F)F)nc21 (stereo not drawn) [Example 86, 4-Amino-5-(5-cyclopropyl-1,3,4-oxadiazol-2-yl)-5,7′-dimethyl-2′-(3,3,4,4,4-pentafluorobutyl)-5,7-dihydro-6H,7′H-[2,4′-bipyrrolo[2,3-d]pyrimidin]-6-one]	B (Category B=SBP in SHRs 15-25 mmHg)	104%	410 nM	–	–
